The nature of one series: in vitro. The settings on record: human, HepG2 cells.
Series [1] relates to Mycolicibacterium smegmatis. Kind of series: Antimycobacterial activity against Mycobacterium smegmatis […] assessed as inhibition of bacterial growth incubated for 48 hrs by spectrophotometer. Format: functional.
The subject of series [2] is Mycobacterium tuberculosis. In words: microbe, parasite or virus in culture. The settings on record: H37Ra.
Description: Antimycobacterial activity against autoluminescent Mycobacterium tuberculosis H37Ra assessed as inhibition of bacterial growth measured after 3 to 7 days by luminescence based analysis
In series [3] the test system is Mycolicibacterium smegmatis. Kind of series: Synergistic antimycobacterial activity against Mycobacterium smegmatis assessed as inhibition of bacterial growth at 0.5 times MIC50 incubated for 7 days in presence of 0.5 times MIC50 of rifampicin by checkerboard assay. Format: functional, organism-based. The conditions noted are these: time 7.0 day.
Series [4] can be described thus: Antimicrobial activity against Bifidobacterium pseudocatenulatum assessed as inhibition of microbial growth upto 2 uM. The class given is toxicity.
Series [5] has as its system Mycolicibacterium smegmatis. In words: Synergistic antimycobacterial activity against Mycobacterium smegmatis assessed as inhibition of bacterial growth at 0.5 times MIC50 incubated for 7 days in presence of 0.5 times MIC50 of ethambutol by checkerboard assay. Format: functional, organism-based. The settings on record: time 7.0 day.
Series [6] deals with T1, Decaprenylphosphoryl-beta-D-ribose oxidase (Mycobacterium tuberculosis (strain ATCC 25618 / H37Rv), UniProt P9WJF1).
T1 sequence (P9WJF1 whole entry): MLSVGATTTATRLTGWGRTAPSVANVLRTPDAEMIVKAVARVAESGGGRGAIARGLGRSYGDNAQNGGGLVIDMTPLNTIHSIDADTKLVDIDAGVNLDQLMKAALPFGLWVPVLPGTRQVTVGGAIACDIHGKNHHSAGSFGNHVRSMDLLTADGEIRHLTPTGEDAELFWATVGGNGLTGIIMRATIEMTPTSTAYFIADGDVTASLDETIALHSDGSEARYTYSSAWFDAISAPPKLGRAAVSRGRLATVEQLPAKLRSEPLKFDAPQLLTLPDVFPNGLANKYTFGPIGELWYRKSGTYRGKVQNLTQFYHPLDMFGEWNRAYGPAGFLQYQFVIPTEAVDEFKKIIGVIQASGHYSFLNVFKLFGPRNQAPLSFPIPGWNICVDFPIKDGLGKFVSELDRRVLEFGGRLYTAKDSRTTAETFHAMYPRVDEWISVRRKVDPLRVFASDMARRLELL
Description: Binding affinity to Mycobacterium tuberculosis DprE1 assessed as dissociation constant by biolayer interferometry

Series [7] is described as follows: Antimicrobial activity against Clostridium tyrobutyricum assessed as inhibition of microbial growth upto 2 uM. The class given is toxicity.
The nature of series [8]: Antimicrobial activity against Lactobacillus reuteri assessed as inhibition of microbial growth upto 2 uM. The class given is toxicity. The settings on record: limosilactobacillus reuteri.
Series [9] is described as follows: Cytotoxicity against human Chang liver cells assessed as inhibition of cell growth. Format: toxicity, cell-based.
Series [10] is described as follows: Antimicrobial activity against Akkermansia muciniphila assessed as inhibition of microbial growth upto 2 uM. The class given is toxicity.
Series [11] concerns the target T2, Decaprenylphosphoryl-beta-D-ribose oxidase (Mycobacterium tuberculosis (strain ATCC 25618 / H37Rv)) (UniProt P9WJF1).
T2 sequence (whole entry): T1 sequence (P9WJF1 whole entry)
Kind of series: Binding affinity to Mycobacterium tuberculosis DprE1 upto 166.7 microM by biolayer interferometry.

In series [12] the test system is Mycobacterium tuberculosis. Kind of series: Antimycobacterial activity against Mycobacterium tuberculosis assessed as inhibition of bacterial growth incubated for 24 hrs by alamar blue assay. The class given is functional. Background: The colour change of resazurin is a common sign of viable cells or microbes.
Series [13] has as its system Mycobacterium tuberculosis. The class given is functional. The settings on record: H37Ra.
The test system of series [14] is Mycolicibacterium smegmatis. Kind of series: Antimycobacterial activity against Mycobacterium smegmatis […] assessed as inhibition of bacterial growth at 10 uM incubated for 48 hrs by spectrophotometer relative to control. Format: functional.

In general, pIC50 refers to −log10 of the IC50, conventionally taken in molar units. A higher pIC50 goes with a low IC50. What is called MIC is the lowest concentration that inhibits growth of the organism. The pKd is the Kd on a negative log10 scale, so that one unit is a factor of ten. Read a high pKd as a low Kd. In general, inhibition refers to the share of the control response that was lost under treatment.

pIC50, pKd: −log10 of the molar value. In brackets after ≈: the same amount, converted by molar mass. Activity calls are given as the source filed them. The rule behind the calls is not given here. Bounds are passed on as bounds.

Description for in vitro: Cytotoxicity against human HepG2 cells assessed as reduction in cell viability

`Cc1cc(NC(=O)c2ccc3ccccc3c2)n(-c2nc3c(c(=O)[nH]2)CCC3)n1`: the negative-log IC50 (pIC50) in “in vitro” was 3.84. Also, in [1], the MIC was over 50 µM.
In the case of `Cc1cccc(C(=O)Nc2cc(C)nn2-c2nc3cc(F)ccc3c(=O)[nH]2)c1`, the MIC90 in [2] came to 1.66 µM (≈ 0.626 µg/mL).
As to `CCc1cc(=O)[nH]c(-n2nc(C)cc2Nc2cccc(C(F)(F)F)c2)n1`, the outcome in series [3] and in series [5] was Active. In addition, the Activity result in [4], in series [7], in series [8], in series [9] and in series [10] was “Non-Toxic” in each case. The compound further showed a pIC50 in the series “in vitro” of under 4.00. This compound also gave a pKd in series [6] of 4.60. In series [2], this compound displayed an MIC90 of 0.78 µM (≈ 0.283 µg/mL).
Compound `CCc1cc(=O)[nH]c(-n2nc(C)cc2NC(=O)c2cccc(F)c2)n1` showed an MIC90 in [2] of 6.25 µM (≈ 2.13 µg/mL).
Compound `CCc1cc(=O)[nH]c(-n2nc(C)cc2Nc2cccc([N+](=O)[O-])c2)n1` displayed an MIC90 in series [2] of 1.56 µM (≈ 0.531 µg/mL).
In [2], `Cc1cccc(C(=O)Nc2cc(C)nn2-c2nc3ccc(Cl)cc3c(=O)[nH]2)c1` had an MIC90 of 1.59 µM (≈ 0.626 µg/mL).
In [2], `CCc1cc(=O)[nH]c(-n2nc(C)cc2Nc2cccc(C)c2)n1` displayed an MIC90 of 0.78 µM (≈ 0.241 µg/mL).
`CO[C@H]1/C=C/O[C@@]2(C)Oc3c(C)c(O)c4c(O)c(c(/C=N/N5CCN(C)CC5)c(O)c4c3C2=O)NC(=O)/C(C)=C\C=C\[C@H](C)[C@H](O)[C@@H](C)[C@@H](O)[C@@H](C)[C@H](OC(C)=O)[C@@H]1C` [RIFAMPIN]: in [6], the pKd was 1.03. In [11], the outcome was inactive. Besides, the results for the Activity result in series [7], in series [8] and in series [10] were “Toxic”, “Non-Toxic” and “Toxic”, respectively.
The compound `COc1ncnc(Cn2cc(C(=O)NCCO)c3ncc(C)cc32)c1C` [TBA-7371] gave a pIC50 in the series “in vitro” of 3.78. In [2], this compound came in with an MIC90 of 12.5 µM (≈ 4.44 µg/mL). Further, in [1], the MIC came to 2.54 µM (≈ 0.903 µg/mL).
In turn, `Cc1cccc(C(=O)Nc2cc(C)nn2-c2nc3ccc(C)cc3c(=O)[nH]2)c1` showed an MIC90 in series [2] of 0.84 µM (≈ 0.314 µg/mL).
`CCc1c(C)nc(-n2nc(C)cc2NC(=O)COc2cccc(C)c2)[nH]c1=O`: the pIC50 in the series “in vitro” was 4.39. In series [2], the MIC90 stood at 5.98 µM (≈ 2.28 µg/mL). For the same compound, the MIC in [1] was 7.71 µM (≈ 2.94 µg/mL).
Regarding `Cc1cccc(C(=O)Nc2cc(C)nn2-c2nc3ccc(F)cc3c(=O)[nH]2)c1`, the MIC90 in [2] was 0.83 µM (≈ 0.313 µg/mL).
On the same count and under the same terms, the same measure for `CCc1cc(=O)[nH]c(-n2nc(C)cc2NC(=O)C2CCCC2)n1`: 6.25 µM (≈ 1.97 µg/mL); for `CCc1cc(=O)[nH]c(-n2nc(C)cc2N)n1`: 6.25 µM (≈ 1.37 µg/mL).
The compound `CCC(CC)C(=O)Nc1nnc(C2CC(=O)N(c3ccc(C)c(Cl)c3)C2)s1` (centres undefined) showed a pIC50 in “in vitro” of 4.37. The MIC in series [1] is over 50 µM.
On to `CCc1cc(=O)[nH]c(-n2nc(C)cc2NC(C)=O)n1`, for which the MIC90 in [2] is 50 µM (≈ 13.1 µg/mL).
Same read-out and setting: under `Cc1cc(NC(=O)c2cccnc2)n(-c2nc3ccccc3c(=O)[nH]2)n1` stands 1.81 µM (≈ 0.627 µg/mL).
For `CCc1ccc(N2CC(C(=O)Nc3ccccc3C(=O)Nc3nnc(CC)s3)CC2=O)cc1` (centres undefined), in “in vitro”, the pIC50 is 3.78. Besides, the MIC in series [1] is over 50 µM.
Take `CCc1cc(=O)[nH]c(-n2nc(C)cc2NC(=O)c2cccc([N+](=O)[O-])c2)n1`: the pIC50 in “in vitro” is 4.26. The compound further returned an MIC90 in series [2] of 3.12 µM (≈ 1.15 µg/mL). Moreover, in series [1], the MIC is 0.86 µM (≈ 0.317 µg/mL).
In [2], `Cc1cc(NC(=O)c2cccc(C(F)(F)F)c2)n(-c2nc3ccccc3c(=O)[nH]2)n1` displayed an MIC90 of 1.51 µM (≈ 0.624 µg/mL).
Same read-out and setting: the same measure for `COc1ccc2c(=O)[nH]c(-n3nc(C)cc3NC(=O)c3cccc(C)c3)nc2c1`: 6.43 µM (≈ 2.5 µg/mL).
For the compound `C=CCN1C(=O)NC(=O)/C(=C\NNC(=O)c2ccncc2)C1=O`, the minimum inhibitory concentration (MIC) in [12] is 9.75 µM (≈ 3.07 µg/mL).
Take `Cc1cc(NC(=O)c2ccc(C)c(C)c2)n(-c2nc(C)c(C)c(=O)[nH]2)n1`: in the series “in vitro”, the pIC50 is 4.41. The compound further came in with an MIC90 in series [2] of 3.56 µM (≈ 1.25 µg/mL). Further, in [1], the MIC stood at 1.06 µM (≈ 0.372 µg/mL).
`CCOc1ccc(CC(=O)Nc2cc(C)nn2-c2nc3c(c(=O)[nH]2)CCC3)cc1`: the pIC50 in “in vitro” is 3.94. This compound showed an MIC90 in series [2] of 18.5 µM (≈ 7.26 µg/mL). In series [1], the MIC turned out to be 18.5 µM (≈ 7.26 µg/mL).
In the case of `Cc1cccc(Nc2cc(C)nn2-c2nc3ccccc3c(=O)[nH]2)c1`, the MIC90 in series [2] was found to be 0.94 µM (≈ 0.311 µg/mL).
The compound `CCc1cc(=O)[nH]c(-n2nc(C)cc2NC(=O)c2cccc(C)c2)n1` showed an MIC90 in [2] of 1.56 µM (≈ 0.526 µg/mL).
With `NNC(=O)c1ccncc1` [ISONIAZID], the Activity result is “Toxic” in [4], “Toxic” in series [7] and “Non-Toxic” in series [8]. Further, the pIC50 in “in vitro” is under 4.00. In addition, in series [2], the MIC90 turned out to be 0.78 µM (≈ 0.107 µg/mL).
In series [13], `O=C(Cc1ccccc1)NNC(=O)c1cc([N+](=O)[O-])cc([N+](=O)[O-])c1` displayed an MIC of 1.25 µM (≈ 0.43 µg/mL).
In “in vitro”, `Cc1nc2ccc(NC(=O)c3cc([N+](=O)[O-])cc([N+](=O)[O-])c3Cl)cc2s1` had a pIC50 of 4.06. Moreover, the MIC in series [1] is over 50 µM.
Take `CCOC(=O)C(=O)Nc1cc(C)nn1-c1nc(C)c(CC)c(=O)[nH]1`: in “in vitro”, the pIC50 is 4.08. The same compound gave an MIC90 in [2] of 30.6 µM (≈ 10.2 µg/mL). For the same compound, the MIC in series [1] turned out to be 30.6 µM (≈ 10.2 µg/mL).
`COc1ccc2nc(-n3nc(C)cc3NC(=O)c3cccc(C)c3)[nH]c(=O)c2c1` registered an MIC90 in [2] of 0.8 µM (≈ 0.312 µg/mL).
In the case of `CCc1c(C)nc(-n2nc(C)cc2NC(=O)C2CC(=O)N(c3ccc(C)cc3)C2)[nH]c1=O` (centres undefined), the pIC50 in “in vitro” is under 4.00. Also, the inhibition at 10 µM in series [14] amounted to 38%. Also, the MIC in series [1] was found to be 29.8 µM (≈ 12.9 µg/mL).
As for `Cc1cccc(C(=O)Nc2cc(C)nn2-c2nc3ccccc3c(=O)[nH]2)c1`, the result in [3] and in [5] was Active. Besides, the Activity result in series [4], in [7], in series [8], in [9] and in series [10] was “Non-Toxic” throughout. This compound showed a pIC50 in “in vitro” of under 4.00. In [2], this compound returned an MIC90 of 1.56 µM (≈ 0.561 µg/mL).
In series [2], `Cc1cccc(C(=O)Nc2cc(C)nn2-c2nc3cc(Cl)ccc3c(=O)[nH]2)c1` gave an MIC90 of 3.18 µM (≈ 1.25 µg/mL).
For the compound `Cc1cc(NC(=O)Cc2ccccc2)n(-c2nc3ccccc3c(=O)[nH]2)n1`, the MIC90 in series [2] amounted to 7.22 µM (≈ 2.59 µg/mL).
`Cc1cccc(C(=O)Nc2cc(C)nn2-c2nc(C3CC3)cc(=O)[nH]2)c1` displayed an MIC90 in series [2] of 3.12 µM (≈ 1.09 µg/mL).
Turning to `CC(=O)N1N=C(c2c(O)n(-c3ccccc3C)c(=O)[nH]c2=O)CC1c1ccccc1` (centres undefined), the pIC50 in the series “in vitro” is 4.68. In series [1], the MIC was over 50 µM.
Compound `CCc1c(C)nc(-n2nc(C)cc2NC(=O)CCc2ccc(OC)cc2)[nH]c1=O` had a pIC50 in “in vitro” of 3.89. Also, the MIC90 in series [2] amounted to 6.32 µM (≈ 2.5 µg/mL). For the same compound, the MIC in series [1] worked out at 18 µM (≈ 7.11 µg/mL).

These data come from ChEMBL document CHEMBL5537187, “Discovery of N-(1-(6-Oxo-1,6-dihydropyrimidine)-pyrazole) Acetamide Derivatives as Novel Noncovalent DprE1 Inhibitors against Mycobacterium tuberculosis” (J Med Chem, 2024).
